The values below are quoted from earlier work in patent EP2103943A1, “GDF-15 for assessing a cardiovascular risk with respect to the administration of antiinflammatory drugs” (F. Hoffmann-La Roche AG, priority 2008, dated 2009).

SMILES strings stand for the structures.

For the compound `CS(=O)(=O)c1ccc(C2=C(c3ccccc3)C(=O)OC2)cc1` [Rofecoxib], where the note is “25 mg rofecoxib compared with a placebo, after 18 months of follow-up”, the “additional cardiovascular incidents (myocardial infarction, stroke)” value is listed as 16 per 1,000 treated patients. For the same compound, the blood pressure levels result (25 mg rofecoxib compared with a placebo, early post-observation phase) is listed as “higher blood pressure levels”. The “rise in the rate of serious thromboembolic incidents” value (APPROVE study, patients without any recognisable cardiovascular risk, led to premature discontinuation) is reported as 3.9 times.
